Measurements reported in patent publication US20140011853A1, “SUBSTITUTED 3-(BIPHENYL-3-YL)-8,8-DIFLUORO-4-HYDROXY-1-AZASPIRO[4.5]DEC-3-EN-2-ONES FOR THERAPY” (BAYER INTELLECTUAL PROPERTY GMBH, priority 2011, published 2014).
Where “and” joins values, the source holds several entries; their conditions need not be identical. Equal entries are not always repeated.

What was measured:
[1] = test system: KM12; test: Tumour cell proliferation, CellTiter-Glo, 96-hour incubation, KM12; assay type: cell-based; details: Homo sapiens, KM12, 96 h, read-out: KM12 IC50
Procedure: (§1) In accordance with the invention, the substances were tested in cell-based assays for the ability of the substances of inhibiting tumour cell proliferation after a 96-hour incubation with the substance. Cell viability was tested using the CellTiter-Glo® luminescent cell viability assay (Promega). The cells were sown at a density of 2000-5000 cells/well (depending on the cell line) in 100 μl growth medium on 96-well microtiter plates. For each cell line examined, cells were sown on a separate plate to determine the luminescence at t=0 hours and t=96 hours. After overnight incubation at 37° C., the luminescence values for the t=0 samples were determined. The dose plates for the t=96 hours points in time were treated with substances diluted with growth medium. The cells were then incubated at 37° C. for 96 hours, and the luminescence values for the t=96 hours samples were then determined. For data analysis, the t=0 values were subtracted from the t=96 hours values for treated and untreated samples. The differences in luminescence in percent between substance-treated samples and control values were used to determine the growth inhibition in percent.
(§2) The substances were tested in the following cell lines which represent the stated indications in an exemplary manner: […]

[2] = test system: H460; test: Tumour cell proliferation, CellTiter-Glo, 96-hour incubation, H460; assay type: cell-based; details: Homo sapiens, NCI-H460, 96 h, read-out: H460 IC50
Procedure: as §1, §2

[3] = test system: MCF7; test: Tumour cell proliferation, CellTiter-Glo, 96-hour incubation, MCF7; assay type: cell-based; details: Homo sapiens, MCF7, 96 h, read-out: MCF7 IC50
Procedure: as §1, §2

[4] = Octanol/water distribution coefficient (logP/D), isocratic HPLC method; assay type: physicochemical; details: pH 7.4
From the text: Assay for Determining the Octanol/Water Distribution Coefficient (logP/D):
The distribution coefficient octanol/water P or D is a key parameter for estimating membrane penetration and permeability. It is defined as the ratio of the equilibrium concentrations of a substance in the two-phase system octanol/water.
It is usually stated in form of the decadic logarithm (logP or logD).
logP describes the distribution behaviour of a substance exclusively present in its neutral form. logD describes the distribution behaviour of a substance at a certain pH; depending on the ionization constant pKa of the substance, some of the substance may be present in ionic form, and some in neutral form.
The logP/D of the active compounds was determined using an isocratic HPLC method (HPLC=high performance liquid chromatography) (literature: OECD Guideline for Testing of Chemicals No. 117). The method is based on the correlation of the HPLC retention time of the test substance to that of reference substances with known distribution coefficients.
The test substance was employed as a 10 mM solution in DMSO (DMSO=dimethyl sulphoxide). 10 μl of this solution were made up to 100 μl with a methanol/water mixture in a ratio of 7+3.
The nine reference substances were dissolved individually in methanol. 100 μl each of the stock solutions were added to an HPLC vial and mixed with 300 μl of water.
A formamide solution was used to determine the hold-up time. To this end, 7 mg of formamide were dissolved in 10 ml of methanol. 100 μl of this stock solution were mixed with 500 μl of methanol and 200 μl of water.
All solutions were chromatographed using a flow rate of 1.00 ml/min.
Injection Protocol: formamide, references, test substance 1, test substance 2, . . . , formamide, references.
Evaluation of the retention times was carried out in a diode array detector (DAD) at 200-400 nm Via the molecular mass, the identity of the test substance was checked using the downstream mass spectrometer.
The HPLC run was evaluated using the Waters software Masslynx 4.1.
The logP/D values were calculated using the software “POW Determination” (proprietary development).

[5] = Plasma protein binding by equilibrium dialysis, human; assay type: in vitro ADME; details: read-out: fu (human)
Procedure: The binding of test substances to plasma proteins is determined by equilibrium dialysis by means of the Ht-dialysis apparatus (96-well) made of Teflon and a semipermeable membrane (regenerated cellulose, MWCO 12-14K). This separates 150 μl each of a plasma side and a buffer side (50 mM phosphate buffer). The test substance is added in 2 concentrations (usually 3 and 0.3 μM) to the plasma side and binds to plasma proteins. The unbound fraction of the test substance passes through the membrane and is distributed on either side until equilibrium is established (after approx. 6-8 h at 37° C.). The substance concentration on the buffer side and the plasma side is determined by LC-MS analysis. For this, both sides are brought by dilution with buffer or plasma to the same matrix (10% plasma) and then precipitated with methanol. The free (unbound) fraction (fu) is calculated from the quotient of the buffer and plasma concentration. Stability tests and recovery tests are run concurrently as controls. In addition, the substance in buffer is dialysed against buffer, to check the nonspecific binding to apparatus and membrane and establishment of equilibrium. Because during incubation the osmotic pressure of the plasma proteins leads to dilution of the plasma (volume shift), this possible error is determined by weighing blank plasma samples and is included in the calculation of fu. Establishment of equilibrium and plasma stability should have a value not lower than 80% and the recovery should be at least 30%. A free fraction of <1% is regarded as high, between 1 and 10% as moderate and >10% as low plasma protein binding.

[6] = test system: Spodoptera frugiperda; test: Spodoptera frugiperda test (SPODFR spray treatment); assay type: in vivo; details: 500 g/ha, after 7 days
[7] = test system: Myzus persicae; test: Myzus test (MYZUPE spray treatment); assay type: in vivo; details: Myzus persicae, 144 h, read-out: effect (kill of aphids)
From the text: Disks of Chinese cabbage (Brassica pekinensis) infested by all stages of the green peach aphid (Myzus persicae) are sprayed with an active compound formulation of the desired concentration.

[8] = target: human ACC2 (Homo sapiens, UniProt O00763); test: Human ACC2 enzyme assay (ADP-Glo); details: ACC 2 IC50, individual measurements
[9] = test system: Phaedon cochleariae; test: Phaedon test (PHAECO spray treatment); details: 500 g/ha, after 7 days
[10] = target: human serum albumin (HSA) (Homo sapiens, UniProt P02768); test: Protein binding to human serum albumin (HSA-Transil)
human serum albumin (HSA), sequence (P02768 25-609): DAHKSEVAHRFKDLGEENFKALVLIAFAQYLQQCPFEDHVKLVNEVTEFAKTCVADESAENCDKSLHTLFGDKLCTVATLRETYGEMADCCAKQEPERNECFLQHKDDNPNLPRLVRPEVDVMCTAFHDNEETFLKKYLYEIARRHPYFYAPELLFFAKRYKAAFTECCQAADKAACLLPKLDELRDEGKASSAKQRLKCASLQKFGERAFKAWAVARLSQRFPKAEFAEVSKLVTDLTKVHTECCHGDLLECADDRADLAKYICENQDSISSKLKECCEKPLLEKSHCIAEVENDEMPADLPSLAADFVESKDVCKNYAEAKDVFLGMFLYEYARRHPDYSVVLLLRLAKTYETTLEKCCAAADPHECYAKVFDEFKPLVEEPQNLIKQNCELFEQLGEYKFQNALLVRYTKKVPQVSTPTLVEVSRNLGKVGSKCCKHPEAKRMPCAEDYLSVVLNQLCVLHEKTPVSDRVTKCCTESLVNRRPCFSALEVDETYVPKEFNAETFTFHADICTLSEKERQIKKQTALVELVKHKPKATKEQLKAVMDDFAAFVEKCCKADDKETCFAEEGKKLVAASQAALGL

human ACC2, sequence (O00763 27-2458 limits assumed): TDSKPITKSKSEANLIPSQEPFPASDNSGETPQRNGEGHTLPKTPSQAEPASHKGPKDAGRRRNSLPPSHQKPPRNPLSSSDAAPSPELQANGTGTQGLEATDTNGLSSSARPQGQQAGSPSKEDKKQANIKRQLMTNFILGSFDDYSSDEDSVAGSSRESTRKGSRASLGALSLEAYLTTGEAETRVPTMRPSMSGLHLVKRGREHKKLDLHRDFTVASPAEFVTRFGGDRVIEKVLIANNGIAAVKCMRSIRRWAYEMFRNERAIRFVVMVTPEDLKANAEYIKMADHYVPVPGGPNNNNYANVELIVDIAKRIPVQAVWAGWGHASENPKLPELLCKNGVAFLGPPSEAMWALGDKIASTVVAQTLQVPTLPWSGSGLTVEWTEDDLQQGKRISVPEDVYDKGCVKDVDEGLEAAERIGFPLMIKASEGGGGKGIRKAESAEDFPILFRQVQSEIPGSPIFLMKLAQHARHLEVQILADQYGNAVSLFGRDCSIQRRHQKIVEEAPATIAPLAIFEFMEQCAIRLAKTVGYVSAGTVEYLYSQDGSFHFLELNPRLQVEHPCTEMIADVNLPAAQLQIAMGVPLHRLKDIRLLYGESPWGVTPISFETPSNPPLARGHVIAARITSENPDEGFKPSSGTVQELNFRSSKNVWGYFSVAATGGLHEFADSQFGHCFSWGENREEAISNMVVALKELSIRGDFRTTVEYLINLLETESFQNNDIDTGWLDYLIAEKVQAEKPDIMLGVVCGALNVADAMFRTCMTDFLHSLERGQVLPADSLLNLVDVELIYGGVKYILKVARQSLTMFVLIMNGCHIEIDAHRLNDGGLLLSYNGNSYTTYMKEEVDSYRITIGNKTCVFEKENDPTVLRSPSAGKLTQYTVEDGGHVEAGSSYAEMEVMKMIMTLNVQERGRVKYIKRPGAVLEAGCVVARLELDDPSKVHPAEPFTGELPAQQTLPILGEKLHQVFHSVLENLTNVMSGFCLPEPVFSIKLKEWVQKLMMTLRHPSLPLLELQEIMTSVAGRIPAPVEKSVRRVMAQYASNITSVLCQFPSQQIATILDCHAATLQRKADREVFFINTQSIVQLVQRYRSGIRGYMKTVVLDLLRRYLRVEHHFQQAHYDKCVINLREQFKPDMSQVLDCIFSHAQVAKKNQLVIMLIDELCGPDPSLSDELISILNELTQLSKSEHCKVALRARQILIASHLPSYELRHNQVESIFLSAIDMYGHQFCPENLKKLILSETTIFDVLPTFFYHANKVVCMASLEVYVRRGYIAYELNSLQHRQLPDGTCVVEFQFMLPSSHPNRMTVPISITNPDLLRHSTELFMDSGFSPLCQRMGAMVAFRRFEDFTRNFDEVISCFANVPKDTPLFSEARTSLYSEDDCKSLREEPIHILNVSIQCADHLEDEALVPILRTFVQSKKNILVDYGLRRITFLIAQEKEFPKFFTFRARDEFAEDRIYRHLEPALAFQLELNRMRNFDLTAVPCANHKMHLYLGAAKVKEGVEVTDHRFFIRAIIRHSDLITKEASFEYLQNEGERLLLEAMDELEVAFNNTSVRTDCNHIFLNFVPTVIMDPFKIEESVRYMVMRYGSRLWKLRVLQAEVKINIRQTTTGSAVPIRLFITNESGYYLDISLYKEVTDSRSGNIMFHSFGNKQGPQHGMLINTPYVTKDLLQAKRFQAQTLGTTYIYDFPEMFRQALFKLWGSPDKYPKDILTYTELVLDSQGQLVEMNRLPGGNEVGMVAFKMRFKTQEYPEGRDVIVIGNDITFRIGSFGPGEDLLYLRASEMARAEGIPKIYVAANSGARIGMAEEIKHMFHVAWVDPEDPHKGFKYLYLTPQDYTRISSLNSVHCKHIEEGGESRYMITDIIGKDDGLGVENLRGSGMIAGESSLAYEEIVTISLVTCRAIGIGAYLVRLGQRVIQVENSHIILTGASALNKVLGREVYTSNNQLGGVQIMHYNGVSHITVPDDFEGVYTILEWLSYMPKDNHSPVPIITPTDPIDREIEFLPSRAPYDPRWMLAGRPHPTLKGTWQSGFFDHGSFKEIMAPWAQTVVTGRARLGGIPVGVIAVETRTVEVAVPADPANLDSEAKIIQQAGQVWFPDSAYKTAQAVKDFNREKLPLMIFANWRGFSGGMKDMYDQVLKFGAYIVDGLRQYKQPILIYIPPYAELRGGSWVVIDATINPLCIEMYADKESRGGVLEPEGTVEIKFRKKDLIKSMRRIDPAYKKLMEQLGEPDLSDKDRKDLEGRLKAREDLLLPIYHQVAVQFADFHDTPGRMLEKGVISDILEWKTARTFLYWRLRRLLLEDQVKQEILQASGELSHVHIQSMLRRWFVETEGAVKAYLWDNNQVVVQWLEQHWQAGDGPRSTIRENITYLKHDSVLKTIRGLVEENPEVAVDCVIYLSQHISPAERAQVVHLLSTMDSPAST

Compound | IC50 [1] [nM] | IC50 [2] [nM] | IC50 [3] [nM] | chromatographic logP [4] | fraction unbound [5] | effect (kill of caterpillars) [6] [%] | pest or weed control at 500 g/ha [7] [%] | IC50 [8] | effect (kill of beetle larvae) [9] [%] | Kd [10] [nM]
Cc1ccc(-c2ccc(Cl)c(F)c2)cc1C1=C(O)C2(CCC(F)(F)CC2)NC1=O [Example 1-1, 3-(4′-Chloro-3′-fluoro-4-methylbiphenyl-3-yl)-8,8-difluoro-4-hydroxy-1-azaspiro[4.5]dec-3-en-2-one] | 28 | 131 | 22 | 1.9 | 0.0035 | 100 | 90 | 3370 nM and 2110 nM and 2510 nM and 3740 nM and 957 nM and 1910 nM and 2780 nM and 3240 nM | 100 | 3040
Cc1ccc(-c2ccc(Cl)cc2)cc1C1=C(O)C2(CCC(F)(F)CC2)NC1=O [Example 1-2, 3-(4′-Chloro-4-methylbiphenyl-3-yl)-8,8-difluoro-4-hydroxy-1-azaspiro[4.5]dec-3-en-2-one] | 58 | 134 | 30 | 1.73 | 0.0042 | 100 | 100 | 2350 nM and 2070 nM and 2450 nM and 2790 nM and 650 nM and 1280 nM and 1230 nM and 1740 nM | 100 | 3860
